From US10799518B2, “Use of agonists of formyl peptide receptor 2 for treating dermatological diseases” (Allergan, Inc., priority 2013, dated 2020)

Assays:
[1] = molecular target: human FPR2 receptor (Homo sapiens (Human), UniProt P25090); experiment: FLIPR Ca+2 response in HEK-Gα16 cells stably expressing the human FPR2 receptor; type: cell-based; settings: Table 4; for FPR2 (% eff): value in parentheses, given mostly as fraction; for EC50: HEK-Gα16 human FPR2, FLIPR
Method: HEK-Gα16 cells stably expressing the human FPR2 receptor was utilized. Cells were plated into 384-well poly-D-lysine coated plates at a density of 18,000 cells per well one day prior to use. The growth media was DMEM medium supplemented with 10% fetal bovine serum (FBS), 1% antibiotic-antimycotic, 50 μg/ml hygromycin, and 400 μg/ml geneticin. On the day of the experiment, the cells were washed twice with Hank's Balanced Salt Solution supplemented with 20 mM HEPES (HBSS/hepes buffer). The cells were then dye loaded with 2 μM Fluo-4 diluted in the HBSS/Hepes buffer and incubated at 37° C. for 40 minutes. Extracellular dye was removed by washing the cell plates four times prior to placing the plates in the FLIPR (Fluorometric Imaging Plate Reader, Molecular Devices). Ligands were diluted in HBSS/Hepes buffer and prepared in 384-well microplates. Data for Ca^+2 responses were obtained in relative fluorescence units.

[2] = molecular target: FPRL-1 (Homo sapiens (Human), UniProt P25090); experiment: FPRL-1 Ga16-CHO EC50 (efficacy); type: cell-based; settings: Table 3; value in parentheses
Sequence of FPRL-1 (P25090 whole entry): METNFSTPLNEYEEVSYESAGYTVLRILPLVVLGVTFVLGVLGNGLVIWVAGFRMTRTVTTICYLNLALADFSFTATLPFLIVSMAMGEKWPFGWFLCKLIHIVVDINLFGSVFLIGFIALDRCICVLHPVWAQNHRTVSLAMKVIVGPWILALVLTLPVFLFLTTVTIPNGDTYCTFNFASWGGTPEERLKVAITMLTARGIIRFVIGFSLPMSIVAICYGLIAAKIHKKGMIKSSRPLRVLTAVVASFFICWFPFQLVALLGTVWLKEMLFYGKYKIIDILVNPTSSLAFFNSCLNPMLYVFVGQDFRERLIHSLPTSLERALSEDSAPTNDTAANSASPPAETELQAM

[3] = tested on: LL-37-induced inflammation in mouse ears; experiment: LL37-induced model of rosacea in mice (ear thickness); type: in vivo; settings: topical to ears; p<0.05 vs. vehicle; FIG. 2
Method: LL37-Induced Model of Rosacea in Mice:
Prior to dosing, animals are lightly anaesthetized with isofluorane and baseline right and left ear thickness measurements are made with a digital caliper (Mitutoyo 293-340). At t=−1 hrs, animals are lightly anaesthetized with isoflurane to allow topical application (dorsal side) of 10 μL of FPR2 agonist formulated in a vehicle consisting of PBS:ethanol (50:50), or vehicle control to both ears. At t=0 hr, mice are re-anaesthetized. Following ear thickness measurements, 20 uL of LL-37 (100 μM) is injected into the right ear, while PBS is injected into the left ear. Additional ear thickness measurements are taken at t=3 and 6 hours. After the last time point, mice are euthanized by CO2 inhalation and ears collected for additional analyses.

Sequence of human FPR2 receptor (P25090 whole entry): as above

Structure (SMILES) | FPR2 (% eff) [1] [%] | FPRL-1 Ga16-CHO (efficacy) [2] | also measured
CCOP(=O)(O)CNC(=O)[C@H](CC(C)C)NC(=O)Nc1ccc(C(F)(F)F)cc1 [Compound 135, ethyl hydrogen ({[(2S)-4-methyl-2-({[4-(trifluoromethyl)phenyl]carbamoyl}amino)pentanoyl]amino}methyl)phosphonate] | 91 |  | 
CC(C)C[C@H](NC(=O)Nc1ccc(Br)cc1)C(=O)NCC(O)CO (stereo partly drawn) [Compound 95, (2S)-2-{[(4-bromophenyl)carbamoyl]amino}-N-(2,3-dihydroxypropyl)-4-methylpentanamide] | 98 |  | 
CCCC1(CCC)NC(=O)N(CC(=O)Nc2ccc(Br)cc2)C1=O [N-(4-bromophenyl)-2-(2,5-dioxo-4,4-dipropylimidazolidin-1-yl)acetamide] |  | 0.98 | 
CCOP(=O)(CNC(=O)[C@H](Cc1ccccc1)NC(=O)Nc1ccc(Br)cc1)OCC [Compound 118, diethyl ({[(2S)-2-{[(4-bromophenyl)carbamoyl]amino}-3-phenylpropanoyl]amino}methyl)phosphonate] | 93 |  | 
O=C(CN1C(=O)C2CC=CCC2C1=O)Nc1ccc(Br)cc1 (stereo not drawn) [N-(4-bromophenyl)-1,3,3a,4,7,7a-hexahydro-1,3-dioxo-2H-isoindole-2-acetamide] |  | 0.98 | 
CCOP(=O)(CCNC(=O)CC1(C(C)C)NC(=O)N(NC(=O)Nc2ccc(Br)cc2)C1=O)OCC (stereo not drawn) [Compound 152, diethyl [2-({[1-{[(4-bromophenyl)carbamoyl]amino}-2,5-dioxo-4-(propan-2-yl)imidazolidin-4-yl]acetyl}amino)ethyl] phosphonate] | 100 |  | 
CCOP(=O)(CCNC(=O)[C@H](CC(C)C)NC(=O)Nc1ccc(Br)cc1)OCC [Compound 119, diethyl (2-{[(2S)-2-{[(4-bromophenyl)carbamoyl]amino}-4-methylpentanoyl]amino}ethyl) phosphonate] |  |  | EC50 [1]: 16.1 nM
CC1(C2CC2)NC(=O)N(CC(=O)Nc2ccc(Br)cc2)C1=O (stereo not drawn) [N-(4-bromophenyl)-2-(4-cyclopropyl-4-methyl-2,5-dioxoimidazolidin-1-yl)acetamide] |  | 0.84 | 
CCC[C@H](NC(=O)Nc1ccc(Br)cc1)C(=O)NCP(=O)(OCC)OCC [Compound 117, diethyl (1[(2S)-2-1[(4-bromophenyl)carbamoyl]amino}pentanoyl]amino}methyl) phosphonate] | 100 |  | 
CC[C@H](C)[C@H](NC(=O)Nc1ccc(Br)cc1)C(=O)NCC(=O)O [Compound 3, {[(2S,3S)-2-{[(4-bromophenyl)carbamoyl]amino}-3-methylpentanoyl]amino} acetic acid] |  |  | inflammation induced by LL-37 in mouse ears [3]: Anti-inflammatory activity
O=C(CN1C(=O)NC2(CCCCCC2)C1=O)Nc1ccc(Br)cc1 [N-(4-bromophenyl)-2-(2,4-dioxo-1,3-diazaspiro[4.6]undec-3-yl)acetamide] |  | 0.96 | 
O=C(CN1C(=O)NC2(CCCC2)C1=O)Nc1ccc(Br)cc1 [N-(4-bromophenyl)-2-(2,4-dioxo-1,3-diazaspiro[4.4]non-3-yl)acetamide] |  | 0.96 | 
CCC1(CC)NC(=O)N(CC(=O)Nc2ccc(Cl)cc2)C1=O [N-(4-chlorophenyl)-2-(4,4-diethyl-2,5-dioxoimidazolidin-l-yl)acetamide] |  | 0.79 | 
CC(C)C[C@H](NC(=O)Nc1ccc(Br)cc1)C(=O)NCC(=O)O [Compound 8, {[(2S)-2-{[(4-bromophenyl)carbamoyl]amino}-4-methylpentanoyl]amino} acetic acid] |  |  | inflammation induced by LL-37 in mouse ears [3]: Anti-inflammatory activity
CCC[C@H](NC(=O)Nc1ccc(Br)cc1)C(=O)NCP(=O)(O)OCC [Compound 123, ethyl hydrogen ({[(2S)-2-{[(4-bromophenyl)carbamoyl]amino}pentanoyl]amino}methyl) phosphonate] | 96 |  | 
CC(C)C[C@H](NC(=O)Nc1ccc(C(F)(F)F)cc1)C(=O)NCC(=O)O [Compound 124, {[(2S)-4-methyl-2-({[4-(trifluoromethyl)phenyl]carbamoyl}amino)pentanoyl]amino}acetic acid] | 100 |  | 
CCOP(=O)(O)CNC(=O)[C@@H](NC(=O)Nc1ccc(Br)cc1)[C@@H](C)CC [Compound 115, ethyl hydrogen ({[(2S,3S)-2-{[(4-bromophenyl)carbamoyl]amino}-3-methylpentanoyl]amino}methyl)phosphonate] | 88 |  | 

Structure (SMILES) | FPR2 (% eff) [1] [%] | FPRL-1 Ga16-CHO (efficacy) [2] | also measured
CCC1(CC)NC(=O)N(CC(=O)Nc2ccc(F)cc2)C1=O [2-(4,4-diethyl-2,5-dioxoimidazolidin-1-yl)-N-(4-fluorophenyl)acetamide] |  | 0.67 | 
CCOP(=O)(O)CNC(=O)[C@H](Cc1ccccc1)NC(=O)Nc1ccc(Br)cc1 [Compound 126, ethyl hydrogen ({[(2S)-2-{[(4-bromophenyl)carbamoyl]amino}-3-phenylpropanoyl]amino}methyl)phosphonate] | 100 |  | 
O=C(CN1C(=O)C2C3C=CC(C3)C2C1=O)Nc1ccc(Br)cc1 (stereo not drawn) [N-(4-bromophenyl)-1,3,3a,4,7,7a-hexahydro-1,3-dioxo-4,7-methano-2H-isoindole-2-acetamide] |  | 0.90 | 
CSc1ccc(NC(=O)C2C(C(=O)O)C3C=CC2C32CC2)cc1 (stereo not drawn) [Compound 31, 3-{[4-(methylsulfanyl)phenyl]carbamoyl} spiro[bicyclo[2.2.1]heptane-7,1′-cyclopropane]-5-ene-2-carboxylic acid] | 96 |  | EC50 [1]: 14 nM
CCC1(CC)NC(=O)N(CC(=O)Nc2ccc(Br)cc2)C1=O [N-(4-bromophenyl)-2-(4,4-diethyl-2,5-dioxoimidazolidin-1-yl)acetamide] |  | 0.98 | 
CCOP(=O)(CNC(=O)[C@H](CC(C)C)NC(=O)Nc1ccc(C(F)(F)F)cc1)OCC [Compound 134, diethyl ({[(2S)-4-methyl-2-({[4-(trifluoromethyl)phenyl]carbamoyl}amino)pentanoyl]amino}methyl)phosphonate] | 97 |  | 
CC(C)C[C@H](NC(=O)Nc1ccc(Br)cc1)C(=O)NCc1cc(O)no1 [Compound 116, (2S)-2-{[(4-bromophenyl)carbamoyl]amino}-N-[(3-hydroxy-1,2-oxazol-5 - yl)methyl]-4-methylpentanamide] | 100 |  | 
CC1(C)NC(=O)N(CC(=O)Nc2ccc(Br)cc2)C1=O [N-(4-bromophenyl)-2-(4,4-dimethyl-2,5-dioxoimidazolidin-1-yl)acetamide] |  | 0.94 | 
O=C(O)[C@@H]1C2CCC([C@@H]1C(=O)Nc1ccc(Br)cc1)C21CC1 (relative stereo) [Compound 14, rel-(2R,3 S)-3-[(4-brornophenyl)carbarnoyl]spiro [bicyclo[2.2.1]heptane-7,1′-cyclopropane]-2-carboxylic acid] | 90 |  | EC50 [1]: 4 nM
CCC1(C)NC(=O)N(CC(=O)Nc2ccc(Br)cc2)C1=O (stereo not drawn) [N-(4-bromophenyl)-2-(4-ethyl-4-methyl-2,5-dioxoimidazolidin-1-yl)acetamide] |  | 1.0 | 
CCOP(=O)(CNC(=O)[C@H](CC(C)C)NC(=O)Nc1ccc(SC)cc1)OCC [Compound 138] | 91 |  | 
CCC1(c2ccccc2)NC(=O)N(CC(=O)Nc2ccc(Br)cc2)C1=O (stereo not drawn) [N-(4-bromophenyl)-2-(4-ethyl-2,5-dioxo-4-phenylimidazolidin-1-yl)acetamide] |  | 0.83 | 
O=C(CN1C(=O)NC2(CCCCC2)C1=O)Nc1ccc(Br)cc1 [N-(4-bromophenyl)-2-(2,4-dioxo-1,3-diazaspiro[4.5]dec-3-yl)acetamide] |  | 0.89 | 
CC1(CCc2ccccc2)NC(=O)N(CC(=O)Nc2ccc(Br)cc2)C1=O (stereo not drawn) [N-(4-bromophenyl)-2-[4-methyl-2,5-dioxo-4-(2-phenylethyl)imidazolidin-1-yl]acetamide] |  | 0.88 | 
CC(C)C[C@H](NC(=O)Nc1ccc(Br)cc1F)C(=O)NCC(=O)O [Compound 7, {[(2S)-2-{[(4-bromo-2-fluorophenyl)carbamoyl]amino}-4-methylpentanoyl]amino} acetic acid] |  |  | inflammation induced by LL-37 in mouse ears [3]: Anti-inflammatory activity
CC(C)C[C@H](NC(=O)Nc1ccc(Br)cc1)C(=O)N[C@@H](C)C(=O)O [Compound 90, (2S)-2-{[(2S)-2-{[(4-bromophenyl)carbamoyl]amino}-4-methylpentanoyl]amino} propanoic acid] | 100 |  | 
CCOP(=O)(O)CNC(=O)[C@H](CC(C)C)NC(=O)Nc1ccc(Br)cc1 [Compound 105, ethyl hydrogen ({[(2S)-2-{[(4-bromophenyl)carbamoyl]amino}-4-methylpentanoyl]amino}methyl)phosphonate] | 88 |  | 
